Measurements: article PMC12368987 (2025)
One block for each compound: values may come before it.

Key:
[1] = tested on: PFOS_JYP_2 (DNA, aptamer) CTCTCGGGACGACGGGGTAACGGTTTGATCTCCTTCGTGTTCTGTCGTCCC; test: ThT displacement fluorescence; conditions: pH 7.5; 400 nM aptamer, 10 μM thioflavin T; up to 50 μM
[2] = tested on: 16T (upper small loop without 16th thymine) (DNA, aptamer) AACGGTTTGATCTCCTCGTG; test: ThT displacement fluorescence; conditions: pH 7.5; 400 nM aptamer, 10 μM thioflavin T; up to 50 μM
[3] = tested on: PFOS_JYP_2 with flanking region shortened to 4 base pairs (DNA, aptamer) CGACGGGGTAACGGTTTGATCTCCTTCGTGTTCTGTCG; test: ThT displacement fluorescence; conditions: different PFOS concentrations; highest not stated in material
[4] = tested on: PFOS_JYP_1 (DNA, aptamer) CTCTCGGGACGACGGGTAGTCTGTGTATGCTCGCAAGCGTGCTGTCGTCCC; test: ThT displacement fluorescence, Hill fit; conditions: pH 7.5, RT, 70 min; 400 nM aptamer; 10 μM thioflavin T displaced
[5] = tested on: PFOS_JYP_2 (DNA, aptamer) CTCTCGGGACGACGGGGTAACGGTTTGATCTCCTTCGTGTTCTGTCGTCCC; test: ThT displacement fluorescence, Hill fit; conditions: pH 7.5, RT, 70 min; 400 nM aptamer; 10 μM thioflavin T displaced
[6] = tested on: PFOS_JYP_3 (DNA, aptamer) CTCTCGGGACGACGGGGGTTGCATCTTTATATGTTTCTTCTCTGTCGTCCC; test: ThT displacement fluorescence, Hill fit; conditions: pH 7.5, RT, 70 min; 400 nM aptamer; 10 μM thioflavin T displaced
[7] = tested on: PFOS_JYP_4 (DNA, aptamer) CTCTCGGGACGACGGGGGGCTATTTCTTCATTCTCTGCTGACTGTCGTCCC; test: ThT displacement fluorescence, Hill fit; conditions: pH 7.5, RT, 70 min; 400 nM aptamer; 10 μM thioflavin T displaced
[8] = tested on: PFOS_JYP_5 (DNA, aptamer) CTCTCGGGACGACGGCCAGATGGAGCTTTTATTTCCCTTCCTCGTCGTCCC; test: ThT displacement fluorescence, Hill fit; conditions: pH 7.5, RT, 70 min; 400 nM aptamer; 10 μM thioflavin T displaced
[9] = tested on: PFOS_JYP_6 (DNA, aptamer) CTCTCGGGACGACGGCAGCTCAGCATCTTTGTTGCCCCTGACTGTCGTCCC; test: ThT displacement fluorescence, Hill fit; conditions: pH 7.5, RT, 70 min; 400 nM aptamer; 10 μM thioflavin T displaced
[10] = tested on: PFOS_JYP_7 (DNA, aptamer) CTCTCGGGACGACCACCAGGTCTCGTCTTATTGGCTATGTGTTGTCGTCCC; test: ThT displacement fluorescence, Hill fit; conditions: pH 7.5, RT, 70 min; 400 nM aptamer; 10 μM thioflavin T displaced
[11] = tested on: upper small loop of PFOS_JYP_2 (DNA, aptamer) AACGGTTTGATCTCCTTCGTG; test: ThT displacement fluorescence, Hill fit; conditions: pH 7.5, RT, 70 min; 400 nM aptamer; 10 μM thioflavin T displaced
[12] = tested on: 16T (upper small loop without 16th thymine) (DNA, aptamer) AACGGTTTGATCTCCTCGTG; test: ThT displacement fluorescence, Hill fit; conditions: pH 7.5, RT, 70 min; 400 nM aptamer; 10 μM thioflavin T displaced
[13] = tested on: 7T (upper small loop without 7th thymine) (DNA, aptamer) AACGGTTGATCTCCTTCGTG; test: ThT displacement fluorescence, Hill fit; conditions: pH 7.5, RT, 70 min; 400 nM aptamer; 10 μM thioflavin T displaced
[14] = tested on: 9G (upper small loop without 9th guanine) (DNA, aptamer) AACGGTTTATCTCCTTCGTG; test: ThT displacement fluorescence, Hill fit; conditions: pH 7.5, RT, 70 min; 400 nM aptamer; 10 μM thioflavin T displaced
[15] = tested on: 10A (upper small loop without 10th adenine) (DNA, aptamer) AACGGTTTGTCTCCTTCGTG; test: ThT displacement fluorescence, Hill fit; conditions: pH 7.5, RT, 70 min; 400 nM aptamer; 10 μM thioflavin T displaced
[16] = tested on: 11T (upper small loop without 11th thymine) (DNA, aptamer) AACGGTTTGACTCCTTCGTG; test: ThT displacement fluorescence, Hill fit; conditions: pH 7.5, RT, 70 min; 400 nM aptamer; 10 μM thioflavin T displaced
[17] = tested on: 15C (upper small loop without 15th cytosine) (DNA, aptamer) AACGGTTTGATCTCTTCGTG; test: ThT displacement fluorescence, Hill fit; conditions: pH 7.5, RT, 70 min; 400 nM aptamer; 10 μM thioflavin T displaced
[18] = tested on: 7T, 16T (DNA, aptamer) AACGGTTGATCTCCTCGTG; test: ThT displacement fluorescence, Hill fit; conditions: pH 7.5, RT, 70 min; 400 nM aptamer; 10 μM thioflavin T displaced
[19] = tested on: 9G, 16T (DNA, aptamer) AACGGTTTATCTCCTCGTG; test: ThT displacement fluorescence, Hill fit; conditions: pH 7.5, RT, 70 min; 400 nM aptamer; 10 μM thioflavin T displaced
[20] = tested on: 10A, 16T (DNA, aptamer) AACGGTTTGTCTCCTCGTG; test: ThT displacement fluorescence, Hill fit; conditions: pH 7.5, RT, 70 min; 400 nM aptamer; 10 μM thioflavin T displaced
[21] = tested on: 11T, 16T (DNA, aptamer) AACGGTTTGACTCCTCGTG; test: ThT displacement fluorescence, Hill fit; conditions: pH 7.5, RT, 70 min; 400 nM aptamer; 10 μM thioflavin T displaced
[22] = tested on: 15C, 16T (DNA, aptamer) AACGGTTTGATCTCTCGTG; test: ThT displacement fluorescence, Hill fit; conditions: pH 7.5, RT, 70 min; 400 nM aptamer; 10 μM thioflavin T displaced
[23] = tested on: PFOS_JYP_2 upper loop, ninth guanine mutated to cytosine (DNA, aptamer) AACGGTTTCATCTCCTTCGTG; test: ThT displacement fluorescence, Hill fit; conditions: pH 7.5, RT, 70 min; 400 nM aptamer; 10 μM thioflavin T displaced
[24] = tested on: PFOS_JYP_6 (72 nt, qPCR) (DNA, aptamer) GGAGGCTCTCGGGACGACGGCAGCTCAGCATCTTTGTTGCCCCTGACTGTCGTCCCGATGCTGCAATCGTAA; test: qPCR Ct change of aptamer-gold nanoparticle complex; conditions: Mg2+ 2 mM (PBS); 1x PBS, pH 7.5; 100 pmol aptamer; 0-400 pM PFOS

Structure (SMILES): O=C(O)C(F)(F)C(F)(F)C(F)(F)C(F)(F)C(F)(F)C(F)(F)C(F)(F)C(F)(F)F
binding [1]: weak
binding [2]: weak

Structure (SMILES): O=C(O)C(F)(F)C(F)(F)C(F)(F)C(F)(F)C(F)(F)C(F)(F)C(F)(F)C(F)(F)C(F)(F)F
binding [1]: weak

Structure (SMILES): CCCCCCCCS(=O)(=O)O
binding [1]: no

The next lines start with the values.

binding [1]: no
Structure (SMILES): O=S(=O)(O)C(F)(F)C(F)(F)C(F)(F)C(F)(F)F

binding [1]: weak
binding [2]: weak
Structure (SMILES): O=C(O)C(F)(F)C(F)(F)C(F)(F)C(F)(F)C(F)(F)C(F)(F)C(F)(F)F

binding [3]: no
KD [4]: 6.93 ± 0.15 µM
KD [5]: 6.76 ± 0.20 µM
KD [6]: 7.82 ± 0.19 µM
KD [7]: 6.87 ± 0.06 µM
KD [8]: 7.33 ± 0.21 µM
KD [9]: 7.69 ± 0.04 µM
KD [10]: 8.42 ± 0.34 µM
KD [11]: 11.21 ± 0.16 µM
KD [12]: 6.77 ± 0.16 µM
KD [13]: 7.99 ± 0.50 µM
KD [14]: 8.86 ± 0.53 µM
KD [15]: 8.30 ± 0.65 µM
KD [16]: 8.60 ± 0.27 µM
KD [17]: 7.57 ± 0.12 µM
KD [18]: 7.97 ± 0.49 µM
KD [19]: 7.35 ± 0.42 µM
KD [20]: 8.19 ± 0.04 µM
KD [21]: 8.82 ± 0.37 µM
KD [22]: 7.86 ± 0.18 µM
KD [23]: 18.23 ± 1.92 µM
binding [24]: yes
Structure (SMILES): O=S(=O)(O)C(F)(F)C(F)(F)C(F)(F)C(F)(F)C(F)(F)C(F)(F)C(F)(F)C(F)(F)F

binding [1]: no
Structure (SMILES): O=C(O)C(F)(F)C(F)(F)C(F)(F)F

binding [1]: weak
binding [2]: weak
Structure (SMILES): O=S(=O)(O)C(F)(F)C(F)(F)C(F)(F)C(F)(F)C(F)(F)C(F)(F)F
